Test results from patent publication US20240352012A1, “PAN-CASPASE INHIBITORS” (GEORGE MASON UNIVERSITY, priority 2023, published 2024).

Columns and labels:
Caspase 3 [1] = molecular target: T1, Caspase 3 (Homo sapiens, UniProt P42574)
T1 sequence (P42574 29-175 limits assumed): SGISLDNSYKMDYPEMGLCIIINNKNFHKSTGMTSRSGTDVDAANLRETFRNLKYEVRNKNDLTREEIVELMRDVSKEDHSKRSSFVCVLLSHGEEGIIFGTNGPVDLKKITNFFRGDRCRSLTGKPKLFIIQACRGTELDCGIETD
T1 sequence (P42574 176-277 limits assumed): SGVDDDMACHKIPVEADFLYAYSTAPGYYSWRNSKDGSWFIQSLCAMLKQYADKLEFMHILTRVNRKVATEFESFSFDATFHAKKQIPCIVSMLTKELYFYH
Description: (§1) Caspase 3 screening assays were performed similar to the assays described by Okun et al. [61]. […] The direct fluorometric enzyme assay was performed in a 96 well plate which was read in a temperature-controlled plate reader equipped with a 400-nm excitation filter and 505-nm emission filter. The fluorescence was read every one minute for 60 minutes.
(§2) A volume of 1 μL of DMSO solution was added to 24 μL H2O to produce a final volume of 25 μL/well in a 96 well plate. A volume of 2.5 μL of the Active caspase 3 was added. 2) A positive inhibition control was prepared by adding 1 μL of the caspase 3 Inhibitor (Z-DEVD-FMK, provided in the kit) instead of the tested compounds. 3) The other positive inhibition control was prepared by adding 1 μL of the caspase 3/7 Inhibitor (Compound C2, purchased from ApexBio company A1925) instead of the tested compounds. 4) A negative inhibition control was prepared using pure DMSO without the inhibitor. A volume of 1 μL of pure DMSO to 24 μL H2O to a final volume of 25 μL/well. 5) Master Mix was prepared for each assay containing the follows: a. 22.5 μL 2× Reaction Buffer (containing 10 mM DTT). b. 2.5 μL of the 1 mM Ac-DEVD-AFC substrate (50 μM final concentration). 6) Master Mix was mixed well then 22.5 μL of the Master Mix was added quickly to each well to start the reaction. 7) Samples were read in Gemini EM fluorescence Microplate reader with a 400 nm excitation wavelength and 505 nm emission wavelength every 1 minute for duration of 1 hour at 37° C. 8) Data was exported in an Excel spread sheet format and processed to determine the % inhibition compared to the controls in each plate. The IC50 was calculated using Graphpad PRISM 7 software.
(§3) All designed compounds were screened at a fixed concentration of 10 PM.

Caspase 3 [2] = molecular target: T1, Caspase 3; test: biochemical
Description: as §1, §2, §3

Caspase 1 = molecular target: T2, Caspase 1 (Homo sapiens, UniProt P29466); test: Caspase 1 inhibitor screening and IC50 assay (direct fluorometric enzyme assay); format: biochemical; settings: calculated by Graphpad PRISM 7; read-out: IC50 (nM) against Caspase 1
T2 construct: purchased Raybiotech Company 68FL-Casp1-S200
T2 sequence (P29466 120-297 limits assumed): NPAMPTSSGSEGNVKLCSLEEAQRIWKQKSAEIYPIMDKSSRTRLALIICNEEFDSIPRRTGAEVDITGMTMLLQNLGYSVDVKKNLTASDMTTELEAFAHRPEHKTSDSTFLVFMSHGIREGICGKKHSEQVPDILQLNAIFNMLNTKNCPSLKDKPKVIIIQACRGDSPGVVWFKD
T2 sequence (P29466 317-404 limits assumed): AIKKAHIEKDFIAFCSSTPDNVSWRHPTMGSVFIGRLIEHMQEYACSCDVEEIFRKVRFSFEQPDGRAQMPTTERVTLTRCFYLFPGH
Description: Caspase 3 screening assays were performed similar to the assays described by Okun et al. [61]. The caspase 3 inhibitor drug screening kits were purchases from Raybiotech Company (Caspase 3: Item number is 68SR-Casp3S100), (Caspase 7: Item number is 68SR-Casp7-S100), and (Caspase 1: Item number is 68FL-Casp1-S200). The direct fluorometric enzyme assay was performed in a 96 well plate which was read in a temperature-controlled plate reader equipped with a 400-nm excitation filter and 505-nm emission filter. The fluorescence was read every one minute for 60 minutes.

Caspase 7 = molecular target: T3, Caspase 7 (Homo sapiens, UniProt P55210); test: biochemical
T3 sequence (P55210 24-198 limits assumed): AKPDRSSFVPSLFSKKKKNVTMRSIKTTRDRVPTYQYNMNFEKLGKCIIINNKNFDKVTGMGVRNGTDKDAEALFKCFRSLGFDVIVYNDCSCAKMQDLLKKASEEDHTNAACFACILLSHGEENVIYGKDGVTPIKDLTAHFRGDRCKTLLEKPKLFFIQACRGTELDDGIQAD
T3 sequence (P55210 207-303 limits assumed): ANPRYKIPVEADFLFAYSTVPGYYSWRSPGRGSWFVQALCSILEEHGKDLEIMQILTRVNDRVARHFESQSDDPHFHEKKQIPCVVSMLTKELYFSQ

| inhibition (Caspase 3 [1]) [%] | IC50 (Caspase 3 [2]) [nM] | IC50 (Caspase 1) [nM] | IC50 (Caspase 7) [nM] | SMILES |
| --- | --- | --- | --- | --- |
| ~30 | – | – | – | Cc1cc(N2C(=O)c3c(C)nc4ccc(F)cc4c3C2=O)c2ccccc2n1 [Compound F4, 8-fluoro-4-methyl-2-(2-methylquinolin-4-yl)-1H,2H,3H-pyrrolo[3,4-c]quinoline-1,3-dione] |
| – | 742 | 178 | 35.2 | Cc1cc(N2C(=O)c3c(C)nc4ccc(S(=O)(=O)N5CCOCC5)cc4c3C2=O)c2ccccc2n1 [MO4, 4-methyl-2-(2-methylquinolin-4-yl)-8-(morpholine-4-sulfonyl)-1H,2H,3H-pyrrolo[3,4c]quinoline-1,3-dione] |
| ~30 | – | – | – | Cc1cc(N2C(=O)c3c(C)nc4ccccc4c3C2=O)c2ccccc2n1 [Compound H4, 4-methyl-2-(2-methylquinolin-4-yl)-1H,2H,3H-pyrrolo[3,4-c]quinoline-1,3-dione] |

Second part, the molecule before the results:

| SMILES | inhibition (Caspase 3 [1]) [%] | IC50 (Caspase 3 [2]) [nM] | IC50 (Caspase 1) [nM] | IC50 (Caspase 7) [nM] |
| --- | --- | --- | --- | --- |
| Cc1nc2ccc(S(=O)(=O)N3CCCC3)cc2c2c(=O)n(-c3ccccc3)[nH]c(=O)c12 [PY6B, 5-methyl-2-phenyl-9-(pyrrolidine-1-sulfonyl)-1H,2H,3H,4H-pyridazino[4,5-c]quinoline-1,4dione] | – | ~4000 | – | – |
| Cc1nc2ccc(S(=O)(=O)N3CCOCC3)cc2c2c1C(=O)N(c1ccc(I)cc1)C2=O [MO11, 2-(4-iodophenyl)-4-methyl-8-(morpholine-4-sulfonyl)-1H,2H,3H-pyrrolo[3,4-c]quinoline1,3-dione] | – | 100 to 300 | – | – |
| Cc1ccc(N2C(=O)c3c(C)nc4ccc(S(=O)(=O)N5CCOCC5)cc4c3C2=O)cc1 [MO13, 4-methyl-2-(4-methylphenyl)-8-(morpholine-4-sulfonyl)-1H,2H,3H-pyrrolo[3,4-c]quinoline1,3-dione] | – | 164 | 361 | 145 |
| Cc1nc2ccccc2c2c1C(=O)N(c1ccc(I)cc1)C2=O [Compound H11, 2-(4-iodophenyl)-4-methyl-1H,2H,3H-pyrrolo[3,4-c]quinoline-1,3-dione] | ~25 | – | – | – |
| Cc1ccc(N2C(=O)c3c(C)nc4ccccc4c3C2=O)cc1 [Compound H13, 4-methyl-2-(4-methylphenyl)-1H,2H,3H-pyrrolo[3,4-c]quinoline-1,3-dione] | ~25 | – | – | – |
| C#Cc1cccc(N2C(=O)c3c(C)nc4ccc(S(=O)(=O)N5CCCCC5)cc4c3C2=O)c1 [PE5, 2-(3-ethynylphenyl)-4-methyl-8-(piperidine-1-sulfonyl)-1H,2H,3H-pyrrolo[3,4-c]quinoline1,3-dione] | – | 785 | 261 | 408 |
